Tests used:
[1] = tested on: Human anagen hair follicles; assay: Growth (elongation) of cultured isolated human hair follicles; assay type: cell-based
Protocol: (§1) Human anagen hair follicles were isolated from scalp skin taken from a single donor and transferred for cultivation in sterile 24 well plates using a modified Williams' Medium E. Cultivation took place for nine days, while the experimental treatment of the follicles started 24 hours from the beginning of the cultivation. Hair follicles were selected for the experiments after 18 h of cultivation. Only follicles showing a good vital stage and a growth of not less than 0.2 mm were considered suitable to be maintained in culture. All experimental groups and the control group were prepared by including 12 follicles, plated in 24 well plates at a density of 3 hair follicles (HFs) per well. […] The growth of the hair follicles was studied by performing image analyses on microphotographs. All hair follicles were photographed at day 5 of culture (day 4 of treatment) and then at day 9 of culture (day 8 of treatment).

[2] = tested on: Human anagen hair follicles; assay: Histological analysis of hair follicles (anagen/catagen stage, dermopapilla morphology); assay type: cell-based; settings: for Anagen phase / Catagen phase: after 9 days of cultivation
Protocol: as §1
The experiment according to Examples 1 to 3 was terminated after 9 days of cultivation. Subsequently, the hair follicles were subjected to histological analysis by staining with haematossilin and eosin in order to verify the morphological state of the dermopapilla.

Which results are given for `C=C1C[C@]23C[C@@]1(O)CC[C@H]2[C@@]12C=C[C@H](O)[C@@](C)(C(=O)O1)[C@H]2[C@@H]3C(=O)O` [Gibberellin, Gibberellic acid]?
inhibition at 1 µg/mL ([1]; Homo sapiens, Examples 1-3, 1 μg/ml, P<0.01, read-out: inhibitory action on hair growth in comparison with the untreated sample): 19%; Growth of hair follicles: Elongation performance, Average ([1]; Table 1, Examples 1-3, 0.01 μg/ml, day 9 of culture): 88.2 ± 7.0 percentage of the control group; Growth of hair follicles: Elongation performance, Average ([1]; Table 1, Examples 1-3, 0.1 μg/ml, day 9 of culture): 85.6 ± 5.4 percentage of the control group; Growth of hair follicles: Elongation performance, Average ([1]; Table 1, Examples 1-3, 1.0 μg/ml, day 9 of culture): 80.6 ± 5.4 percentage of the control group; Growth of hair follicles: Elongation performance, Average ([1]; Table 2, Examples 4-6, 0.01 μg/ml, 9 days of cultivation): 81.4 ± 5.9 percentage of the control group; Growth of hair follicles: Elongation performance, Average ([1]; Table 2, Examples 4-6, 0.1 μg/ml, 9 days of cultivation): 89.8 ± 8.0 percentage of the control group; Growth of hair follicles: Elongation performance, Average ([1]; Table 2, Examples 4-6, 1.0 μg/ml, 9 days of cultivation): 82.7 ± 6.6 percentage of the control group; Growth of hair follicles: Elongation performance, Average ([1]; Table 3, Examples 7-8, 0.1 μg/ml, 9 days of cultivation): 76.6 ± 4.3 percentage of the control group; Growth of hair follicles: Elongation performance, Average ([1]; Table 3, Examples 7-8, 1.0 μg/ml, 9 days of cultivation): 69.9 ± 3.2 percentage of the control group; Growth of hair follicles: Elongation performance, Average ([1]; Table 4, Examples 9-10, 0.1 μg/ml, 9 days of cultivation): 77.7 ± 5.8 percentage of the control group; Growth of hair follicles: Elongation performance, Average ([1]; Table 4, Examples 9-10, 1.0 μg/ml, 9 days of cultivation): 72.3 ± 4.9 percentage of the control group; Growth of hair follicles: Elongation performance, Average ([1]; Table 5, Examples 11-12, 0.1 μg/ml, 9 days of cultivation): 91.3 ± 4.7 percentage of the control group; Growth of hair follicles: Elongation performance, Average ([1]; Table 5, Examples 11-12, 1.0 μg/ml, 9 days of cultivation): 79.9 ± 5.9 percentage of the control group; effect on decline of the hair follicles into the catagen phase ([2]; Examples 13-14, 0.1 and 1 μg/ml, result in words): significantly anticipated the decline into the catagen phase; Anagen phase ([2]; Table 6, Example 13, 0.1 μg/ml): 22.2; Catagen phase ([2]; Table 6, Example 13, 0.1 μg/ml): 77.8; Anagen phase ([2]; Table 6, Example 14, 1 μg/ml): 9.1; Catagen phase ([2]; Table 6, Example 14, 1 μg/ml): 90.9

Which results are given for Gibberellic acid [Gibberellin]?
change of hair follicle growth in comparison to the control group ([1]; Examples 7-8, 1 μg/ml, P<0.001): −30.1%; change of hair follicle growth in comparison to the control group ([1]; Examples 9-10, 1 μg/ml, P<0.001): −27.7%; change of hair follicle growth in comparison to the control group ([1]; Examples 11-12, 1 μg/ml, P<0.01): −20%; reduction of hair growth in comparison to the control group ([1]; Examples 11-12, depending on the treatment dosage (0.1-1.0 μg/ml)): up to 20%

— patent publication US20150150769A1, “COSMETIC COMPOSITIONS COMPRISING DITERPENOIC ACIDS, E.G. GIBBERELLIC ACIDS” (Cutech S.r.L., priority 2011, published 2015)
